Measurements from patent publication US11026427B2, “Microbiocidal oxadiazole derivatives” (SYNGENTA PARTICIPATIONS AG, priority 2016, dated 2021).

Assays:
[1] = test system: Puccinia recondita f. Sp. tritici; test: Puccinia recondita f. sp. tritici / wheat / leaf disc preventative (brown rust); type: in vivo; conditions: foliar, 200 ppm in the applied formulation, compared to untreated control, read-out: disease control
Procedure: Leaf disks or leaf segments of various plant species are cut from plants grown in a greenhouse. The cut leaf disks or segments are placed in multiwell plates (24-well format) onto water agar. The leaf disks are sprayed with a test solution before (preventative) or after (curative) inoculation. Compounds to be tested are prepared as DMSO solutions (max. 10 mg/ml) which are diluted to the appropriate concentration with 0.025% Tween20 just before spraying. The inoculated leaf disks or segments are incubated under defined conditions (temperature, relative humidity, light, etc.) according to the respective test system. A single evaluation of disease level is carried out 3 to 14 days after inoculation, depending on the pathosystem. Percent disease control relative to the untreated check leaf disks or segments is then calculated. Wheat leaf segments cv. Kanzler were placed on agar in multiwell plates (24-well format) and sprayed with the formulated test compound diluted in water. The leaf disks were inoculated with a spore suspension of the fungus 1 day after application. The inoculated leaf segments were incubated at 19° C. and 75% relative humidity (rh) under a light regime of 12 hours light/12 hours darkness in a climate cabinet and the activity of a compound was assessed as percent disease control compared to untreated when an appropriate level of disease damage appears in untreated check leaf segments (7 to 9 days after application). The following compounds at 200 ppm in the applied formulation give at least 80% disease control in this test when compared to untreated control leaf disks under the same conditions, which show extensive disease development.

[2] = test system: Glomerella lacenarium (Colletotrichum lacenarium); test: Glomerella lacenarium (Colletotrichum lacenarium) liquid culture / cucumber / preventative (anthracnose); type: cell-based; conditions: 20 ppm in the applied formulation, growth inhibition measured photometrically, compared to untreated control, read-out: disease control
Procedure: Mycelia fragments or conidia suspensions of a fungus prepared either freshly from liquid cultures of the fungus or from cryogenic storage, are directly mixed into nutrient broth. DMSO solutions of the test compound (max. 10 mg/ml) are diluted with 0.025% Tween20 by a factor of 50 and 10 μl of this solution is pipetted into a microtiter plate (96-well format). The nutrient broth containing the fungal spores/mycelia fragments is then added to give an end concentration of the tested compound. The test plates are incubated in the dark at 24° C. and 96% relative humidity. The inhibition of fungal growth is determined photometrically after 2 to 7 days, depending on the pathosystem, and percent antifungal activity relative to the untreated check is calculated.
Conidia of the fungus from cryogenic storage are directly mixed into nutrient broth (PDB—potato dextrose broth). After placing a (DMSO) solution of test compound into a microtiter plate (96-well format), the nutrient broth containing the fungal spores is added. The test plates are incubated at 24° C. and the inhibition of growth is measured photometrically 3 to 4 days after application.
The following compounds at 20 ppm in the applied formulation give at least 80% disease control in this test when compared to untreated control under the same conditions, which show extensive disease development.

[3] = test system: Puccinia recondita f. Sp. tritici; test: Puccinia recondita f. sp. tritici / wheat / leaf disc curative (brown rust); type: in vivo; conditions: foliar, 200 ppm in the applied formulation, compared to untreated control, read-out: disease control
Procedure: (§1) Leaf disks or leaf segments of various plant species are cut from plants grown in a greenhouse. The cut leaf disks or segments are placed in multiwell plates (24-well format) onto water agar. The leaf disks are sprayed with a test solution before (preventative) or after (curative) inoculation. Compounds to be tested are prepared as DMSO solutions (max. 10 mg/ml) which are diluted to the appropriate concentration with 0.025% Tween20 just before spraying. The inoculated leaf disks or segments are incubated under defined conditions (temperature, relative humidity, light, etc.) according to the respective test system. A single evaluation of disease level is carried out 3 to 14 days after inoculation, depending on the pathosystem. Percent disease control relative to the untreated check leaf disks or segments is then calculated.
Wheat leaf segments cv. Kanzler are placed on agar in multiwell plates (24-well format). The leaf segments are then inoculated with a spore suspension of the fungus. Plates were stored in darkness at 19° C. and 75% relative humidity. The formulated test compound diluted in water was applied 1 day after inoculation. The leaf segments were incubated at 19° C. and 75% relative humidity under a light regime of 12 hours light/12 hours darkness in a climate cabinet and the activity of a compound was assessed as percent disease control compared to untreated when an appropriate level of disease damage appears in untreated check leaf segments (6 to 8 days after application).
(§2) The following compounds at 200 ppm in the applied formulation give at least 80% disease control in this test when compared to untreated control leaf disks under the same conditions, which show extensive disease development.

Phakopsora pachyrhizi = Phakopsora pachyrhizi / soybean / leaf disc preventative (Asian soybean rust); type: in vivo; conditions: foliar, 200 ppm in the applied formulation, compared to untreated control, read-out: disease control
Procedure: as §1
Soybean leaf disks are placed on water agar in multiwell plates (24-well format) and sprayed with the formulated test compound diluted in water. One day after application leaf discs are inoculated by spraying a spore suspension on the lower leaf surface. After an incubation period in a climate cabinet of 24-36 hours in darkness at 20° C. and 75% rh leaf disc are kept at 20° C. with 12 h light/day and 75% rh. The activity of a compound is assessed as percent disease control compared to untreated when an appropriate level of disease damage appears in untreated check leaf disks (12 to 14 days after application).
as §2

| Compound | pest or weed control at 200 ppm [1] | inhibition of growth at 20 ppm [2] | pest or weed control at 200 ppm [3] | pest or weed control at 200 ppm (Phakopsora pachyrhizi) | melting point |
| --- | --- | --- | --- | --- | --- |
| Cc1ccc(C(=O)c2ccc(-c3noc(C(F)(F)F)n3)cc2)nc1 [Compound 1.37, (5-methyl-2-pyridyl)-[4-[5-(trifluoromethyl)-1,2,4-oxadiazol-3-yl]phenyl]methanone] | ≥ 80% | ≥ 80% | ≥ 80% | – | – |
| Cc1cccc(C(O)c2ccc(-c3noc(C(F)(F)F)n3)cc2)n1 (centres unmarked) [Compound 2.13, (6-methyl-2-pyridyl)-[4-[5-(trifluoromethyl)-1,2,4-oxadiazol-3-yl]phenyl]methanol] | ≥ 80% | ≥ 80% | ≥ 80% | ≥ 80% | – |
| Cc1ncc(C(O)c2ccc(-c3noc(C(F)(F)F)n3)cc2)s1 (centres unmarked) [Compound 2.22, (2-methylthiazol-5-yl)-[4-[5-(trifluoromethyl)-1,2,4-oxadiazol-3-yl]phenyl]methanol] | ≥ 80% | – | ≥ 80% | – | 104 to 108 °C |
| OC(c1ccc(-c2noc(C(F)(F)F)n2)cc1)c1ccccn1 (centres unmarked) [Compound 2.12, 2-pyridyl-[4-[5-(trifluoromethyl)-1,2,4-oxadiazol-3-yl]phenyl]methanol] | ≥ 80% | ≥ 80% | ≥ 80% | ≥ 80% | – |
| O=C(c1ccc(-c2noc(C(F)(F)F)n2)cc1)c1ccno1 [Compound 1.35, isoxazol-5-yl-[4-[5-(trifluoromethyl)-1,2,4-oxadiazol-3-yl]phenyl]methanone] | ≥ 80% | ≥ 80% | ≥ 80% | – | 112 to 118 °C |
| OC(c1ccc(-c2noc(C(F)(F)F)n2)cc1)c1cscn1 (centres unmarked) [Compound 2.18, thiazol-4-yl-[4-[5-(trifluoromethyl)-1,2,4-oxadiazol-3-yl]phenyl]methanol] | ≥ 80% | ≥ 80% | ≥ 80% | – | 56 to 60 °C |
| Cc1nc(C(=O)c2ccc(-c3noc(C(F)(F)F)n3)cc2)cs1 [Compound 1.33, (2-methylthiazol-4-yl)-[4-[5-(trifluoromethyl)-1,2,4-oxadiazol-3-yl]phenyl]methanone] | ≥ 80% | ≥ 80% | ≥ 80% | – | – |
| Cc1ccc(C(O)c2ccc(-c3noc(C(F)(F)F)n3)cc2)nc1 (centres unmarked) [Compound 2.21, (5-methyl-2-pyridyl)-[4-[5-(trifluoromethyl)-1,2,4-oxadiazol-3-yl]phenyl]methanol] | ≥ 80% | – | ≥ 80% | – | – |
| CCC(O)(c1ccc(-c2noc(C(F)(F)F)n2)cc1)c1cc(C)no1 (centres unmarked) [Compound 2.27, 1-(3-methylisoxazol-5-yl)-1-[4-[5-(trifluoromethyl)-1,2,4-oxadiazol-3-yl]phenyl]propan-1-ol] | ≥ 80% | – | ≥ 80% | – | – |
| N#Cc1ccc(C(=O)c2ccc(-c3noc(C(F)(F)F)n3)nc2)cc1 [Compound 1.30, 4-[6-[5-(trifluoromethyl)-1,2,4-oxadiazol-3-yl]pyridine-3-carbonyl]benzonitrile] | ≥ 80% | ≥ 80% | ≥ 80% | – | 142 to 146 °C |
| Cc1nc(C(O)c2ccc(-c3noc(C(F)(F)F)n3)cc2)cs1 (centres unmarked) [Compound 2.20, (2-methylthiazol-4-yl)-[4-[5-(trifluoromethyl)-1,2,4-oxadiazol-3-yl]phenyl]methanol] | ≥ 80% | – | ≥ 80% | – | 95 to 99 °C |
| C=C(C)CC(O)(c1ccc(-c2noc(C(F)(F)F)n2)cc1)c1cc(C)no1 (centres unmarked) [Compound 2.24, 3-methyl-1-(3-methylisoxazol-5-yl)-1-[4-[5-(trifluoromethyl)-1,2,4-oxadiazol-3-yl]phenyl]but-3-en-1-ol] | ≥ 80% | – | ≥ 80% | – | – |
